Experimental data reported in patent US11896591B2, “Compositions and methods for preparing and using mitochondrial uncouplers” (UNIVERSITY OF VIRGINIA PATENT FOUNDATION, priority 2017, dated 2024).

What follows are molecules tested on whole cells (assay: Oxygen consumption rate (OCR) in whole cells, Seahorse XF-24 Flux Analyzer). Conditions: binned EC50 values; increase in oxygen consumption rate in whole cells.
Assay type: cell-based
Procedure: Biological activities of the compounds synthesized is determined by determining increase in oxygen consumption rate (OCR).
OCR is measured using a Seahorse XF-24 Flux Analyzer (Seahorse Biosciences, North Billerica, MA). NMuLi, C2C12, and L6 cells are seeded in a Seahorse 24-well tissue culture plate at a density of 3.5×10^4 cells/well, isolated cardiomyocytes at a density of 4×10^4 cells/well, and human primary fibroblasts at a density of 1.1×10^4 cells/well. The cells are then allowed to adhere for 24 h. […] Compounds are injected during the assay and OCR is measured using 2 min measurement periods.
2-3 wells are used per condition and averaged over three plates (n=6-9). Statistical significance is determined by two-way ANOVA with Bonferroni's posttest.
Molecule `Cc1ccc(Nc2nc3nonc3nc2Nc2ccccc2F)cc1` [Compound 4i, N^5-(2-fluorophenyl)-N^6-(p-tolyl)-[1,2,5]oxadiazolo[3,4-b]pyrazine-5,6-diamine] has an EC50 of 5 to 20 µM.
For `COc1ccc(Nc2nc3[nH]c(C(F)(F)F)nc3nc2Nc2ccccc2F)cc1` [Compound 12r, N^5-(2-fluorophenyl)-N^6-(4-methoxyphenyl)-2-(trifluoromethyl)-1H-imidazo[4,5-b]pyrazine-5,6-diamine], the EC50 was > 20 µM.
`Cn1c(C(F)(F)F)nc2nc(Nc3cccc(C(F)(F)F)c3F)c(Nc3cccc(C(F)(F)F)c3F)nc21` [Compound 13e, N^5,N^6-bis(2-fluoro-3-(trifluoromethyl)phenyl)-1-methyl-2-(trifluoromethyl)-imidazo[4,5-b]pyrazine-5,6-diamine] was tested, and the EC50 was 5 to 20 µM.
`CCNc1nc2nonc2nc1Nc1ccccc1F` [Compound 7b, N^5-ethyl-N^6-(2-fluorophenyl)-[1,2,5]oxadiazolo[3,4-b]pyrazine-5,6-diamine] gave an EC50 of 5 to 20 µM.
`Cc1ccc(Nc2nc3nc(C(F)(F)F)n(C)c3nc2Nc2ccc(C)cc2)cc1` [Compound 13k, 1-Methyl-N^5,N^6-di-p-tolyl-2-(trifluoromethyl)-imidazo[4,5-b]pyrazine-5,6-diamine] was tested, and the EC50 was > 20 µM.
`Fc1ccccc1Nc1nc2nsnc2nc1Nc1ccccc1F` [Compound 10, N^5,N^6-bis(2-fluorophenyl)-[1,2,5]thiadiazolo[3,4-b]pyrazine-5,6-diamine] was tested, and the EC50 was 5 to 20 µM.
In the case of `Cn1c(C(F)(F)F)nc2nc(Nc3cc(C(F)(F)F)ccc3F)c(Nc3cc(C(F)(F)F)ccc3F)nc21` [Compound 13b, N^5,N^6-bis(2-fluoro-5-(trifluoromethyl)phenyl)-1-methyl-2-(trifluoromethyl)-imidazo[4,5-b]pyrazine-5,6-diamine], the EC50 was 5 to 20 µM.
`COc1cccc(Nc2nc3nonc3nc2Nc2ccccc2F)c1` [Compound 4k, N^5-(2-fluorophenyl)-N^6-(3-methoxyphenyl)-[1,2,5]oxadiazolo[3,4-b]pyrazine-5,6-diamine] was tested, and the EC50 was < 5 µM.
Molecule `FC(F)(F)Oc1ccc(Nc2nc3nc(C(F)(F)F)[nH]c3nc2Nc2ccc(OC(F)(F)F)cc2)cc1` [Compound 12m, N^5,N^6-bis(4-(trifluoromethoxy)phenyl)-2-(trifluoromethyl)-1H-imidazo[4,5-b]pyrazine-5,6-diamine] has an EC50 of 5 to 20 µM.
In the case of `Fc1ccc(Nc2nc3nonc3nc2Nc2ccccc2F)c(F)c1` [Compound 4f, N^5-(2,4-difluorophenyl)-N^6-(2-fluorophenyl)-[1,2,5]oxadiazolo[3,4-b]pyrazine-5,6-diamine], the EC50 was < 5 µM.
Molecule `COC(=O)n1c(C(F)(F)F)nc2nc(Nc3cc(F)cc(F)c3)c(Nc3cc(F)cc(F)c3)nc21` [Compound 14c, Methyl 5,6-bis((3,5-difluorophenyl)amino)-2-(trifluoromethyl)-imidazo[4,5-b]pyrazine-1-carboxylate] has an EC50 of 5 to 20 µM.
`Fc1ccccc1Nc1nc2nonc2nc1Nc1ccc(OC(F)(F)F)cc1` [Compound 4s, N^5-(2-fluorophenyl)-N^6-(4-(trifluoromethoxy)phenyl)-[1,2,5]oxadiazolo[3,4-b]pyrazine-5,6-diamine] was tested, and the EC50 was < 5 µM.
In the case of `Fc1ccc(Nc2nc3nonc3nc2Nc2ccccc2F)cc1` [Compound 4d, N^5-(2-fluorophenyl)-N^6-(4-fluorophenyl)-[1,2,5]oxadiazolo[3,4-b]pyrazine-5,6-diamine], the EC50 was < 5 µM.
`Fc1ccc(C(F)(F)F)cc1Nc1nc2nc(C(F)(F)F)[nH]c2nc1Nc1cc(C(F)(F)F)ccc1F` [Compound 12b, N^5,N^6-bis(2-fluoro-5-(trifluoromethyl)phenyl)-2-(trifluoromethyl)-1H-imidazo[4,5-b]pyrazine-5,6-diamine] gave an EC50 of 5 to 20 µM.
`Fc1ccccc1Nc1nc2nonc2nc1Nc1ccc(C(F)(F)F)cc1` [Compound 4w, N^5-(2-fluorophenyl)-N^6-(4-(trifluoromethyl)phenyl)-[1,2,5]oxadiazolo[3,4-b]pyrazine-5,6-diamine] was tested, and the EC50 was < 5 µM.
`Cn1c(C(F)(F)F)nc2nc(Nc3ccc(C(F)(F)F)c(F)c3)c(Nc3ccc(C(F)(F)F)c(F)c3)nc21` [Compound 13h, N^5,N^6-bis(3-fluoro-4-(trifluoromethyl)phenyl)-1-methyl-2-(trifluoromethyl)-imidazo[4,5-b]pyrazine-5,6-diamine] was tested, and the EC50 was > 20 µM.
For `CCCNc1nc2c(nc1Nc1ccccc1F)nc(C(F)(F)F)n2C` [Compound 13w, 1-Methyl-N^5-(2-fluorophenyl)-N^6-propyl-2-(trifluoromethyl)-imidazo[4,5-b]pyrazine-5,6-diamine], the EC50 was > 20 µM.
`Cn1c(C(F)(F)F)nc2nc(Nc3ccc(C(F)(F)F)cc3F)c(Nc3ccc(C(F)(F)F)cc3F)nc21` [Compound 13g, N^5,N^6-bis(2-fluoro-4-(trifluoromethyl)phenyl)-1-methyl-2-(trifluoromethyl)-imidazo[4,5-b]pyrazine-5,6-diamine] was tested, and the EC50 was < 5 µM.
In the case of `Cn1c(C(F)(F)F)nc2nc(Nc3ccccc3F)c(Nc3ccccc3F)nc21` [Compound 13a, N^5,N^6-bis(2-fluorophenyl)-1-methyl-2-(trifluoromethyl)-imidazo[4,5-b]pyrazine-5,6-diamine], the EC50 was > 20 µM.
`COC(=O)n1c(C(F)(F)F)nc2nc(Nc3ccccc3F)c(Nc3ccccc3F)nc21` [Compound 14a, Methyl 5,6-bis((2-fluorophenyl)amino)-2-(trifluoromethyl)-imidazo[4,5-b]pyrazine-1-carboxylate] gave an EC50 of 5 to 20 µM.
`Fc1ccccc1Nc1nc2nonc2nc1NCCC(F)(F)F` [Compound 7d, N^5-(2-fluorophenyl)-N^6-(3,3,3-trifluoropropyl)-[1,2,5]oxadiazolo[3,4-b]pyrazine-5,6-diamine] was tested, and the EC50 was > 20 µM.
In the case of `Cn1c(C(F)(F)F)nc2nc(Nc3cccc(F)c3F)c(Nc3cccc(F)c3F)nc21` [Compound 13j, N^5,N^6-bis(2,3-difluorophenyl)-1-methyl-2-(trifluoromethyl)-imidazo[4,5-b]pyrazine-5,6-diamine], the EC50 was > 20 µM.
In the case of `CCOc1ccc(Nc2nc3nonc3nc2Nc2ccccc2F)cc1` [Compound 4o, N^5-(4-ethoxyphenyl)-N^6-(2-fluorophenyl)-[1,2,5]oxadiazolo[3,4-b]pyrazine-5,6-diamine], the EC50 was < 5 µM.
`O=C(Nc1ccc(Nc2nc3nonc3nc2Nc2ccccc2F)cc1)C(F)(F)F` [Compound 4t, 2,2,2-Trifluoro-N-(4-((6-((2-fluorophenyl)amino)-[1,2,5]oxadiazolo[3,4-b]pyrazin-5-yl)amino)phenyl)acetamide] was tested, and the EC50 was < 5 µM.
In the case of `Cn1c(C(F)(F)F)nc2nc(Nc3ccc(OC(F)(F)F)cc3)c(Nc3ccc(OC(F)(F)F)cc3)nc21` [Compound 13m, 1-Methyl-N^5,N^6-bis(4-(trifluoromethoxy)phenyl)-2-(trifluoromethyl)-imidazo[4,5-b]pyrazine-5,6-diamine], the EC50 was 5 to 20 µM.
With `c1ccc(Nc2nc3nonc3nc2Nc2ccccc2)cc1` [Compound 3ee, N^5,N^6-diphenyl-[1,2,5]oxadiazolo[3,4-b]pyrazine-5,6-diamine] the EC50 was < 5 µM.
For `Cn1c(C(F)(F)F)nc2nc(Nc3ccccc3F)c(Nc3cc(C(F)(F)F)cc(C(F)(F)F)c3)nc21` [Compound 13q, 1-Methyl-N^5-(2-fluorophenyl)-N^6-(3,5-bis(trifluoromethyl)phenyl)-2-(trifluoromethyl)-imidazo[4,5-b]pyrazine-5,6-diamine], the EC50 was > 20 µM.
With `FC(F)(F)Oc1ccc(Nc2nccnc2Nc2ccc(OC(F)(F)F)cc2)cc1` [Compound 16n, N^2,N^3-bis(4-(trifluoromethoxy)phenyl)pyrazine-2,3-diamine] the EC50 was < 5 µM.
In the case of `Fc1cc(C(F)(F)F)ccc1Nc1nccnc1Nc1ccc(C(F)(F)F)cc1F` [Compound 16h, N^2,N^3-bis(2-fluoro-4-(trifluoromethyl)phenyl)pyrazine-2,3-diamine], the EC50 was 5 to 20 µM.
In the case of `Cc1ccc(Nc2nc3[nH]c(C(F)(F)F)nc3nc2Nc2ccccc2F)cc1` [Compound 12u, N^5-(2-fluorophenyl)-N^6-(p-tolyl)-2-(trifluoromethyl)-1H-imidazo[4,5-b]pyrazine-5,6-diamine], the EC50 was 5 to 20 µM.
`Fc1ccccc1Nc1nc2nonc2nc1NC1CCCCC1` [Compound 7f, N^5-cyclohexyl-N^6-(2-fluorophenyl)-[1,2,5]oxadiazolo[3,4-b]pyrazine-5,6-diamine] was tested, and the EC50 was 5 to 20 µM.
In the case of `Fc1ccccc1Nc1nc2nonc2nc1Nc1ccccc1OC(F)(F)F` [Compound 4q, N^5-(2-fluorophenyl)-N^6-(2-(trifluoromethoxy)phenyl)-[1,2,5]oxadiazolo[3,4-b]pyrazine-5,6-diamine], the EC50 was < 5 µM.
`Fc1cc(Nc2nc3nc(C(F)(F)F)[nH]c3nc2Nc2ccc(OC(F)(F)F)c(F)c2)ccc1OC(F)(F)F` [Compound 12f, N^5,N^6-bis(3-fluoro-4-(trifluoromethoxy)phenyl)-2-(trifluoromethyl)-1H-imidazo[4,5-b]pyrazine-5,6-diamine] gave an EC50 of 5 to 20 µM.
In the case of `Fc1ccccc1Nc1nc2nonc2nc1Nc1ccccc1C(F)(F)F` [Compound 4u, N^5-(2-fluorophenyl)-N^6-(2-(trifluoromethyl)phenyl)-[1,2,5]oxadiazolo[3,4-b]pyrazine-5,6-diamine], the EC50 was < 5 µM.
With `Cn1c(C(F)(F)F)nc2nc(Nc3ccccc3F)c(Nc3cccc(C(F)(F)F)c3F)nc21` [Compound 13t, 1-Methyl-N^5-(2-fluorophenyl)-N^6-(2-fluoro-3-(trifluoromethyl)phenyl)-2-(trifluoromethyl)-imidazo[4,5-b]pyrazine-5,6-diamine] the EC50 was > 20 µM.
Molecule `Fc1cccc(Nc2nc3[nH]c(C(F)(F)F)nc3nc2Nc2ccccc2F)c1` [Compound 12o, N^5-(2-fluorophenyl)-N^6-(3-fluorophenyl)-2-(trifluoromethyl)-1H-imidazo[4,5-b]pyrazine-5,6-diamine] has an EC50 of 5 to 20 µM.
For `FC(F)(F)c1cccc(Nc2nccnc2Nc2cccc(C(F)(F)F)c2)c1` [Compound 16b, N^2,N^3-bis(3-(trifluoromethyl)phenyl)pyrazine-2,3-diamine], the EC50 was < 5 µM.
